The target of test [1] is Tyrosine-protein kinase SYK (Homo sapiens) (UniProt P43405). The test is described as follows: Inhibition of recombinant human N-terminal His6-tagged SYK (1 to 635 residues) expressed in baculovirus infected Sf21 cells assessed as remaining activity at 1 uM using Poly (Glu,Tyr) as substrate incubated for 30 mins in presence of [gamma-33P]ATP by filter binding method relative to control.

In test [2] the target is Platelet-derived growth factor receptor alpha (Homo sapiens) (UniProt P16234). Description: Inhibition of human PDGFRalpha at 1 uM using Poly(Ala,Glu,Lys,Tyr) as substrate in presence of 33P-ATP by ProQinase assay.
Test [3] concerns the target Serine/threonine-protein kinase 26 (Homo sapiens) (UniProt Q9P289). Description: Inhibition of human MST4 at 1 uM using RB-CTF as substrate in presence of 33P-ATP by ProQinase assay.
Test [4] deals with Eukaryotic translation initiation factor 2-alpha kinase 3 (Homo sapiens) (UniProt Q9NZJ5). The test is described as follows: Inhibition of human EIF2AK3 at 1 uM using casein as substrate in presence of 33P-ATP by ProQinase assay.
The target in test [5] is CDK2/Cyclin A2 (Homo sapiens) (UniProt P24941+P20248). The test is described as follows: Inhibition of human CDK2/CycA2 at 1 uM using RBER-CHKtide as substrate in presence of 33P-ATP by ProQinase assay. Type of test: protein-complex assay.
Test [6] concerns the target Interleukin-1 receptor-associated kinase 1 (Homo sapiens) (UniProt P51617). Description: Inhibition of human IRAK1 at 1 uM using RB-CTF as substrate in presence of 33P-ATP by ProQinase assay.
Test [7] deals with Serine/threonine-protein kinase 33 (Homo sapiens) (UniProt Q9BYT3). The test is described as follows: Inhibition of human STK33 at 1 uM using RBER-CHKtide as substrate in presence of 33P-ATP by ProQinase assay.
Test [8] concerns the target cAMP-dependent protein kinase catalytic subunit alpha (Homo sapiens) (UniProt P17612). The test is described as follows: Inhibition of human PKACalpha at 1 uM using bio-4xCHKT as substrate in presence of 33P-ATP by ProQinase assay.
Test [9] deals with Dual specificity protein kinase CLK4 (Homo sapiens) (UniProt Q9HAZ1). The test is described as follows: Inhibition of human CLK4 at 1 uM using MBP as substrate in presence of 33P-ATP by ProQinase assay.
Test [10] addresses Mitogen-activated protein kinase 8 (Homo sapiens) (UniProt P45983). Description: Inhibition of human JNK1 at 1 uM using ATF2 as substrate in presence of 33P-ATP by ProQinase assay.
In test [11] the target is Phosphatidylinositol 4-kinase type 2-alpha (Homo sapiens, UniProt Q9BTU6). The test is described as follows: Inhibition of human PI4K2A using PI/PS as substrate by ADP-Glo assay. On the technique in general: ADP-Glo first removes unused ATP, then detects ADP through luciferase.
In test [12] the target is Proto-oncogene tyrosine-protein kinase Src (Homo sapiens) (UniProt P12931). The test is described as follows: Inhibition of human GST/His-tagged SRC at 1 uM using PolyEY as substrate in presence of 33P-ATP by ProQinase assay.
The target in a further test is TAK1/TAB1 (Homo sapiens) (UniProt Q15750+O43318). The test is described as follows: Inhibition of human MAP3K7/MAP3K7IP1 at 1 uM using RB-S6P as substrate in presence of 33P-ATP by ProQinase assay. Type of test: protein-complex assay.
For test [13], the target named is Tyrosine-protein kinase Blk (Homo sapiens) (UniProt P51451). Description: Inhibition of human BLK at 1 uM using polyEY as substrate in presence of 33P-ATP by ProQinase assay.
Test [14] has as its target Eukaryotic translation initiation factor 2-alpha kinase 3 (Homo sapiens) (UniProt Q9NZJ5). The test is described as follows: Inhibition of recombinant human N-terminal GST-tagged EIF2AK3 (536 to 1116 residues) expressed in Escherichia coli assessed as remaining activity at 1 uM using MBP as substrate incubated for 30 mins in presence of [gamma-33P]ATP by filter binding method relative to control.

Test [15] addresses Phosphatidylinositol 4-phosphate 3-kinase C2 domain-containing subunit beta (Homo sapiens, UniProt O00750). Description: Inhibition of PI3KC2beta (unknown origin) at 1 uM.
Test [16] concerns the target Aurora kinase B (Homo sapiens) (UniProt Q96GD4). Description: Inhibition of human AuroraB at 1 uM using bio-4xCHKT as substrate in presence of 33P-ATP by ProQinase assay.
Test [17] has as its target Tyrosine-protein kinase Fgr (Homo sapiens) (UniProt P09769). The test is described as follows: Inhibition of human FGR at 1 uM using polyEY as substrate in presence of 33P-ATP by ProQinase assay.
Test [18] deals with Serine/threonine-protein kinase MARK2 (Homo sapiens) (UniProt Q7KZI7). The test is described as follows: Inhibition of human MARK2 at 1 uM using RBER-CHKtide as substrate in presence of 33P-ATP by ProQinase assay.
For test [19], the target named is Misshapen-like kinase 1 (Homo sapiens) (UniProt Q8N4C8). The test is described as follows: Inhibition of human MINK1 at 1 uM using RBER-CHKtide as substrate in presence of 33P-ATP by ProQinase assay.
Test [20] addresses Phosphatidylinositol 4-kinase type 2-beta (Homo sapiens, UniProt Q8TCG2). The test is described as follows: Inhibition of human PI4K2B using PI/PS as substrate by ADP-Glo assay.
For test [21], the target named is T1, 3-phosphoinositide-dependent protein kinase 1 (Homo sapiens) (UniProt O15530).
T1 sequence (whole entry): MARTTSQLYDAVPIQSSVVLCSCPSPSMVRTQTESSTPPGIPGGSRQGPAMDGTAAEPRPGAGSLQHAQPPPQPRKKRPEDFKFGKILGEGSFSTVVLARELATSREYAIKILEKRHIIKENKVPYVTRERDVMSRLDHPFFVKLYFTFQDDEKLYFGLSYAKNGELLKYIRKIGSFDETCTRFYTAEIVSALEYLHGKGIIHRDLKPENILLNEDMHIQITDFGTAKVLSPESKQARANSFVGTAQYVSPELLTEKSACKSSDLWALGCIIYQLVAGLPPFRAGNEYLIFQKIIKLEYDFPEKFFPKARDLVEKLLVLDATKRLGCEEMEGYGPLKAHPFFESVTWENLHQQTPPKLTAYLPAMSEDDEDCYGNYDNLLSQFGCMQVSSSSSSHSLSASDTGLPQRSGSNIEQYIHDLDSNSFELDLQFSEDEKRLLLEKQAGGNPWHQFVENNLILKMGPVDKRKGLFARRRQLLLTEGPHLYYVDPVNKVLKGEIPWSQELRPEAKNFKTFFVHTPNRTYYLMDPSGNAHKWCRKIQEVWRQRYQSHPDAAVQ
The test is described as follows: Inhibition of recombinant human His6-tagged PDK1 (52 to 556 residues) expressed in baculovirus infected Sf21 cells assessed as remaining activity at 1 uM using PDKtide as substrate incubated for 30 mins in presence of [gamma-33P]ATP by filter binding method relative to control.

Test [22] addresses Casein kinase I isoform alpha (Homo sapiens) (UniProt P48729). Description: Inhibition of human CK1alpha1 at 1 uM using casein as substrate in presence of 33P-ATP by ProQinase assay.

pIC50: −log10 of the molar value. Calls of active or inactive are those of the source. The rule behind the calls is not given here. A value given as a limit tells only on which side of the number the result lay.

Eukaryotic translation initiation factor 2-alpha kinase 3 (Homo sapiens), sequence (Q9NZJ5 whole entry, the tested form may be a part): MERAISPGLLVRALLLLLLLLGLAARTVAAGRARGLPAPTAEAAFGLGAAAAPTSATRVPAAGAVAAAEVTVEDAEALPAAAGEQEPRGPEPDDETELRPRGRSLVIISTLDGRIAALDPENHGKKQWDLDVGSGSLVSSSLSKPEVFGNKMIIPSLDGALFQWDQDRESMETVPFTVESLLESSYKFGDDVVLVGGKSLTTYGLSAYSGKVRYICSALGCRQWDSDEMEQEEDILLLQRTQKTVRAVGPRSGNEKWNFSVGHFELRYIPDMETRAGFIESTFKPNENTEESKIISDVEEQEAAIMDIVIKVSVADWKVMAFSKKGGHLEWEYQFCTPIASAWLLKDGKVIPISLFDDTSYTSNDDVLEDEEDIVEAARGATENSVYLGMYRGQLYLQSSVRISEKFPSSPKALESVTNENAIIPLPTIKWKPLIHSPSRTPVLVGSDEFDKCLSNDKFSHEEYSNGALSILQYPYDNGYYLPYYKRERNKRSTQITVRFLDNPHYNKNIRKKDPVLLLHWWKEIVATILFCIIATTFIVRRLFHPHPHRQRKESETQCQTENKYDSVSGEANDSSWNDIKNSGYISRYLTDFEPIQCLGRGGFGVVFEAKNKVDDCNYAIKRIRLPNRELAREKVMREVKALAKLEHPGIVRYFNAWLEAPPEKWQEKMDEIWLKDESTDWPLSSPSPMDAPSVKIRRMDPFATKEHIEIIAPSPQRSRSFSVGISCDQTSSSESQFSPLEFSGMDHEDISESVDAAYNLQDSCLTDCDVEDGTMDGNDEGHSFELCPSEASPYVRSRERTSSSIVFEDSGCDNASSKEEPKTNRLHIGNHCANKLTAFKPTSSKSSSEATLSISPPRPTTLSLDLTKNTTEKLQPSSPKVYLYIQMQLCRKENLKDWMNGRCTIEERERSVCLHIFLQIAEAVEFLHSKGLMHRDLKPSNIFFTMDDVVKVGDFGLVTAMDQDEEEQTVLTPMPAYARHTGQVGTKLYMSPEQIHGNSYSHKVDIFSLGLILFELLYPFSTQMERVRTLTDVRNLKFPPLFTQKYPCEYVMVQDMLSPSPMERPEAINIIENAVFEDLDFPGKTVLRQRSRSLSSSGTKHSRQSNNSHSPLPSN
Serine/threonine-protein kinase MARK2 (Homo sapiens), sequence (Q7KZI7 whole entry): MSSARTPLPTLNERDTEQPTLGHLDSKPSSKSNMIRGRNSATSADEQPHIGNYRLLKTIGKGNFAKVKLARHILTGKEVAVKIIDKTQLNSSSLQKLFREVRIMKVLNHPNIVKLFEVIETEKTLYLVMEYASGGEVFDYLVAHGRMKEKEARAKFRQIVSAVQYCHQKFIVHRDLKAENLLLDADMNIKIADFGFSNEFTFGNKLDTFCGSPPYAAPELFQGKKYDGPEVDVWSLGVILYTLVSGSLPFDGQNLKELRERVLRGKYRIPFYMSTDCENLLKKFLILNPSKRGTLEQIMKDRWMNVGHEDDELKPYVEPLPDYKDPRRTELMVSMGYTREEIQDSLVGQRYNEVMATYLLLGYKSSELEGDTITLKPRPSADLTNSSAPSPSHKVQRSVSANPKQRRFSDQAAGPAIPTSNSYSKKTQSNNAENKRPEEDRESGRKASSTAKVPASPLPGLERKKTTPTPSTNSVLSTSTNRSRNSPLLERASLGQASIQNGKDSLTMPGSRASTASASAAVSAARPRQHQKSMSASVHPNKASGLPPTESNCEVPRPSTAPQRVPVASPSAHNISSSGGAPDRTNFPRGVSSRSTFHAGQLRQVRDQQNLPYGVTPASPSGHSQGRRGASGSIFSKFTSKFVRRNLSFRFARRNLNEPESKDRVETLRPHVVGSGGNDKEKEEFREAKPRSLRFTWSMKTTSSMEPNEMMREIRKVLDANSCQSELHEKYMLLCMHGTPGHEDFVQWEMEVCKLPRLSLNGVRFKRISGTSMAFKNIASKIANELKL
Serine/threonine-protein kinase 33 (Homo sapiens), sequence (Q9BYT3 whole entry, looked up): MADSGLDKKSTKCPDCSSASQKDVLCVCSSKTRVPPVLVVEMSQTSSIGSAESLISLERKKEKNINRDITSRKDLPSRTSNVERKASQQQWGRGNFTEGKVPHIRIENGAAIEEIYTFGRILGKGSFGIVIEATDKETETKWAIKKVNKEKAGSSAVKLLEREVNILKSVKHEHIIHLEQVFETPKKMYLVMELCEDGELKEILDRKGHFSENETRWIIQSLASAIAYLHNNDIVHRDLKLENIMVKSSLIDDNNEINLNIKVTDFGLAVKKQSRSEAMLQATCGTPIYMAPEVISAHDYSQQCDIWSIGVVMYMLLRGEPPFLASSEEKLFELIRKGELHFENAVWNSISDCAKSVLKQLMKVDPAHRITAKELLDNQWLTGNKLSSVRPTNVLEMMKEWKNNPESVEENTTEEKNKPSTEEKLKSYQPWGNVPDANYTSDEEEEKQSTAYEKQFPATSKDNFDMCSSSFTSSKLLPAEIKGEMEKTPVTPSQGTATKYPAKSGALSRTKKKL
Tyrosine-protein kinase Blk (Homo sapiens), sequence (P51451 2-505 limits assumed): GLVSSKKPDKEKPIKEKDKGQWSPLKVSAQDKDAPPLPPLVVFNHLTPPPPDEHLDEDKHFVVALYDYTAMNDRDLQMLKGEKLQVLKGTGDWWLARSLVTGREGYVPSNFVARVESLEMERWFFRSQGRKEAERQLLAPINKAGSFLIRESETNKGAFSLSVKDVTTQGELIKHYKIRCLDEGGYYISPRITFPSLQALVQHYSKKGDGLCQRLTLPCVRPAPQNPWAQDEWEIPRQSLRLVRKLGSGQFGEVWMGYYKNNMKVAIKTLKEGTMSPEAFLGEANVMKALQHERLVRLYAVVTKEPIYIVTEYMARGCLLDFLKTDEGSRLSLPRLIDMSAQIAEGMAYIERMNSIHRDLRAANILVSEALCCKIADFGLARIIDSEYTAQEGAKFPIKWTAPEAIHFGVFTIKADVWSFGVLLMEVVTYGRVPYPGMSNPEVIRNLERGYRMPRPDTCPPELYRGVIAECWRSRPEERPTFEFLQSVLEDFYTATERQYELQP
Dual specificity protein kinase CLK4 (Homo sapiens), sequence (Q9HAZ1 whole entry, looked up): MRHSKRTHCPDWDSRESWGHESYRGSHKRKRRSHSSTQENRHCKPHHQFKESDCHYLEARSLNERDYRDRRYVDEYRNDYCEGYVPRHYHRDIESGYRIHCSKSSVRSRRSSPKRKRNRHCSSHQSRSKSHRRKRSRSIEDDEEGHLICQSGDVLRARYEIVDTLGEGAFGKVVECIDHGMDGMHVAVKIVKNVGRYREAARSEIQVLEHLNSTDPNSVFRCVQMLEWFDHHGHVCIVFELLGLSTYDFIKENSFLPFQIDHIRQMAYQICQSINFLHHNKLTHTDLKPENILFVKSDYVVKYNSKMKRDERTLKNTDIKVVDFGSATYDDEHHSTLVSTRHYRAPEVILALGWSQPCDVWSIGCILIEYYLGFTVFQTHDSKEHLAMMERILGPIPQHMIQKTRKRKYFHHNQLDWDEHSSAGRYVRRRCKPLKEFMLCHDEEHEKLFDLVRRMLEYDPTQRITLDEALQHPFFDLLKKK
Interleukin-1 receptor-associated kinase 1 (Homo sapiens), sequence (P51617 whole entry, looked up): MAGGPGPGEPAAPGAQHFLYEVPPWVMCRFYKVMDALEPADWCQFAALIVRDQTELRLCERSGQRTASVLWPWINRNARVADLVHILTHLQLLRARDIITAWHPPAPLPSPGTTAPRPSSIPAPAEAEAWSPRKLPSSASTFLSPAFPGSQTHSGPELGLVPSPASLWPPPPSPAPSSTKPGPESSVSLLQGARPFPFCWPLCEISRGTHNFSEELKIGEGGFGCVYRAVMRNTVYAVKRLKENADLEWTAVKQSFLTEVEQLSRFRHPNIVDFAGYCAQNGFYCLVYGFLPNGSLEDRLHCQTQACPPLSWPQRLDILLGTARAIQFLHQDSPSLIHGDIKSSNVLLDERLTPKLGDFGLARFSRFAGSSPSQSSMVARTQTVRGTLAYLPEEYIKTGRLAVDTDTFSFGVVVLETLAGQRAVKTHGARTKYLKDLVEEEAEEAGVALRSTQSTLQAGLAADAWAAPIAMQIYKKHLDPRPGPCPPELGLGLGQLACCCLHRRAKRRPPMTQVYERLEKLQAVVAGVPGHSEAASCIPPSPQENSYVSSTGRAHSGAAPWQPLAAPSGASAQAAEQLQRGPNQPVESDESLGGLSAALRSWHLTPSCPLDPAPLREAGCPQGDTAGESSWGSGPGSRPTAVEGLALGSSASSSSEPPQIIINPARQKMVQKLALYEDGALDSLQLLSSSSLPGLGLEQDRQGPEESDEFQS
Mitogen-activated protein kinase 8 (Homo sapiens), sequence (P45983 whole entry): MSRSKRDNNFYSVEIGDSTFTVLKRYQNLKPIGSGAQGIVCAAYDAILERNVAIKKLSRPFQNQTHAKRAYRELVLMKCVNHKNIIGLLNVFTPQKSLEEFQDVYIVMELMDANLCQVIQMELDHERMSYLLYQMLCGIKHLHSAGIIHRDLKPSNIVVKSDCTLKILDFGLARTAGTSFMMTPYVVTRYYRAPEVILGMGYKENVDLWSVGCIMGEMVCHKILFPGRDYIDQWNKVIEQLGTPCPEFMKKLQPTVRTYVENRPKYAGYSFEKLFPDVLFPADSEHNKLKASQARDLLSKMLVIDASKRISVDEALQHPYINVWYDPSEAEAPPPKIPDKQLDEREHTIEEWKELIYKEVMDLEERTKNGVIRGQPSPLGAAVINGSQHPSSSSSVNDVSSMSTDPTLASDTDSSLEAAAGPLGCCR
Phosphatidylinositol 4-kinase type 2-beta, sequence (Q8TCG2 whole entry): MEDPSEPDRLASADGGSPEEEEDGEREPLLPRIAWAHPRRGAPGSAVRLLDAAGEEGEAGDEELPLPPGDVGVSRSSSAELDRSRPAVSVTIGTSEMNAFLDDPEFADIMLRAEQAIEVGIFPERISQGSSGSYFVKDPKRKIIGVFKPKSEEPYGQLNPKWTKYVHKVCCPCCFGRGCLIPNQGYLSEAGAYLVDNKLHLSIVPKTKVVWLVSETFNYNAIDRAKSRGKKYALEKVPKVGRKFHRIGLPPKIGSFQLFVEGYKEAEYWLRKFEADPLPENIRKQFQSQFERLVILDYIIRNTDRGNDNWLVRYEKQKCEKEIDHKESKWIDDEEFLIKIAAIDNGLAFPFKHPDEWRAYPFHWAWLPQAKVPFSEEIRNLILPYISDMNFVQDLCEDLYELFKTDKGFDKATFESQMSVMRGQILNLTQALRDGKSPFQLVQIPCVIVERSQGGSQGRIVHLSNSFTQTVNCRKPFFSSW

For `CC(C)(O)CNc1ncc(-c2ccnc(Nc3ccnc(Cl)c3)n2)c(CC2CC2)n1`, the Activity in [1] was 91%; in [14], 125%; in test [21] it was 105%. The inhibition entry in [2], in test [3], in test [4], in test [5], in [6] and in [7] was “inactive” each time. The inhibition result (in [8]; in test [9]; in [10]; in test [12]; on TAK1/TAB1 (Homo sapiens); in test [13]) was “inactive” each time. For the same compound, the inhibition result in [15], in test [16], in [17], in test [18], in test [19] and in test [22] was “inactive” throughout. Further, the negative-log IC50 (pIC50) in test [11] and in test [20] was less than 5.00 in each case.

The record behind these values is ChEMBL document CHEMBL5705899 (Biochem J, 2014).
